Data on 30 molecules can be found in ChEMBL document CHEMBL3244027, “Syntheses, analgetic activity, and physical dependence capacity of 5-phenyl-6,7-benzomorphan derivatives” (J Med Chem, 1979).

SMILES strings stand for the structures. The source made the active and inactive calls. The rule behind the calls is not given here. Bounds are passed on as bounds.

Series [1] relates to Mus musculus. The series can be described thus: Analgetic activity against CF-1 mouse assessed as increase in reaction time at 1.2 mg/kg, sc by heat stimulus induced tail flick response assay. On the set-up: dose 1.2 mg/kg. Type of series: functional, organism-based.
The subject of series [2] is Mus musculus. The series can be described thus: Toxicity in sc dosed CF1S mouse. It counts as organism-based. The settings on record: in vivo.
The test system of series [3] is Mus musculus. Nature of the series: Analgetic activity against CF-1 mouse assessed as increase in reaction time at 10 mg/kg, po by heat stimulus induced tail flick response assay. Type of series: functional, organism-based. Details: dose 10 mg/kg.
Series [4] relates to Mus musculus. The series can be described thus: Analgetic activity against CF-1 mouse assessed as increase in reaction time at 2.5 mg/kg, sc by heat stimulus induced tail flick response assay. On the set-up: dose 2.5 mg/kg. Type of series: functional, organism-based.
Series [5] relates to Mus musculus. The series can be described thus: Analgetic activity against CF-1 mouse assessed as increase in reaction time at 100 mg/kg, sc by heat stimulus induced tail flick response assay. It counts as functional, organism-based. On the set-up: dose 100 mg/kg.
Series [6] deals with Mus musculus. Nature of the series: Analgetic activity against CF-1 mouse assessed as increase in reaction time at 80 mg/kg, po by heat stimulus induced tail flick response assay. It counts as functional, organism-based. On the set-up: dose 80 mg/kg.
For series [7], the system named is Mus musculus. Nature of the series: Analgetic activity against CF-1 mouse assessed as increase in reaction time at 10 mg/kg, sc by heat stimulus induced tail flick response assay. It counts as functional, organism-based. On the set-up: dose 10 mg/kg.
Series [8] deals with Mus musculus. The series can be described thus: Analgetic activity in sc dosed CF1S mouse assessed as writhing by phenylquinone writhing test. The settings on record: Mus musculus, CF1S, sc; read-out: ED50. Type of series: functional. On the technique in general: An intraperitoneal irritant provokes the stretching counted in writhing tests.
The subject of series [9] is Mus musculus. Nature of the series: Analgetic activity against CF-1 mouse assessed as increase in reaction time at 30 mg/kg, sc by heat stimulus induced tail flick response assay. It counts as functional, organism-based. Details: dose 30 mg/kg.
Series [10] has as its system Mus musculus. The series can be described thus: Analgetic activity against CF-1 mouse assessed as increase in reaction time at 1.5 mg/kg, sc by heat stimulus induced tail flick response assay. Type of series: functional, organism-based. On the set-up: dose 1.5 mg/kg.
For series [11], the species on record is Mus musculus. The series can be described thus: Analgetic activity in nalorphine challenged mouse assessed as frequency pretreated for 2 day by mouse jumping test. It counts as functional, organism-based.
In series [12] the test system is Mus musculus. The series can be described thus: Analgetic activity against CF-1 mouse assessed as increase in reaction time at 140 mg/kg, sc by heat stimulus induced tail flick response assay. Type of series: functional, organism-based. On the set-up: dose 140 mg/kg.
The subject of series [13] is Mus musculus. The series can be described thus: Analgetic activity against CF-1 mouse assessed as increase in reaction time at 16 mg/kg, po by heat stimulus induced tail flick response assay. It counts as functional, organism-based. On the set-up: dose 16 mg/kg.
For series [14], the species on record is Mus musculus. Nature of the series: Analgetic activity in naloxone challenged mouse assessed as frequency pretreated for 2 day by mouse jumping test. Type of series: functional, organism-based.
The subject of series [15] is Mus musculus. Nature of the series: Analgetic activity in po dosed CF1S mouse assessed as writhing by phenylquinone writhing test. Type of series: functional. The settings on record: Mus musculus, CF1S, po; read-out: ED50.
Series [16] has as its system Mus musculus. Nature of the series: Analgetic activity against CF-1 mouse assessed as increase in reaction time at 4 mg/kg, sc by heat stimulus induced tail flick response assay. It counts as functional, organism-based. Details: dose 4 mg/kg.
The subject of series [17] is Mus musculus. The series can be described thus: Analgetic activity against CF-1 mouse assessed as increase in reaction time at 60 mg/kg, po by heat stimulus induced tail flick response assay. On the set-up: dose 60 mg/kg. Type of series: functional, organism-based.
Series [18] concerns Mus musculus. The series can be described thus: Analgetic activity against CF-1 mouse assessed as increase in reaction time at 30 mg/kg, po by heat stimulus induced tail flick response assay. Type of series: functional, organism-based. Details: dose 30 mg/kg.
For series [19], the system named is Mus musculus. The series can be described thus: Analgetic activity against CF-1 mouse assessed as increase in reaction time at 60 mg/kg, sc by heat stimulus induced tail flick response assay. It counts as functional, organism-based. On the set-up: dose 60 mg/kg.
The test system of series [20] is Mus musculus. Nature of the series: Analgetic activity against CF-1 mouse assessed as increase in reaction time at 100 mg/kg, po by heat stimulus induced tail flick response assay. Type of series: functional, organism-based. On the set-up: dose 100 mg/kg.
Another series concerns Rhesus monkey. Nature of the series: Analgetic activity in naloxone challenged monkey assessed as frequency pretreated for 2 day by mouse jumping test. Type of series: functional, organism-based. The settings on record: Macaca mulatta.
The subject of series [21] is Mus musculus. Nature of the series: Analgetic activity against CF-1 mouse assessed as increase in reaction time at 50 mg/kg, sc by heat stimulus induced tail flick response assay. It counts as functional, organism-based. Details: dose 50 mg/kg.
For series [22], the system named is Mus musculus. The series can be described thus: Analgetic activity against CF-1 mouse assessed as increase in reaction time at 1.2 mg/kg, po by heat stimulus induced tail flick response assay. It counts as functional, organism-based. On the set-up: dose 1.2 mg/kg.
The test system of series [23] is Mus musculus. Nature of the series: Analgetic activity against CF-1 mouse assessed as increase in reaction time at 5 mg/kg, sc by heat stimulus induced tail flick response assay. Type of series: functional, organism-based. On the set-up: dose 5 mg/kg.
Series [24] relates to Mus musculus. Nature of the series: Analgetic activity against CF-1 mouse assessed as increase in reaction time at 20 mg/kg, po by heat stimulus induced tail flick response assay. It counts as functional, organism-based. Details: dose 20 mg/kg.
Series [25] deals with Mus musculus. The series can be described thus: Analgetic activity against CF-1 mouse assessed as increase in reaction time at 320 mg/kg, po by heat stimulus induced tail flick response assay. Type of series: functional, organism-based. On the set-up: dose 320 mg/kg.
In series [26] the test system is Mus musculus. The series can be described thus: Analgetic activity against CF-1 mouse assessed as increase in reaction time at 2 mg/kg, sc by heat stimulus induced tail flick response assay. It counts as functional, organism-based. Details: dose 2 mg/kg.

Take `CC1C2Cc3ccc(OC(=O)c4cccc(Cl)c4)cc3C1(c1ccccc1)CCN2C` (stereo not drawn): in the series on Mus musculus [1], the outcome was Active. Turning to `Oc1ccc2c(c1)C1(c3ccccc3)CCN(CC3CC3)C(C2)C1` (stereo not drawn), the Activity result in the series on Mus musculus [2] was “Toxic”. In the case of `CC1C2Cc3ccc(O)cc3C1(c1ccc(F)cc1)CCN2C` (racemic), the outcome with Mus musculus [3] and with Mus musculus [4] was Active. Take `COc1ccc2c(c1)C1(c3ccccc3)CCN(C)C(C2)C1` (racemic): the outcome in the series with Mus musculus [5] was inactive. `CC1C2Cc3ccc(O)cc3C1(c1ccccc1)CCN2CCc1ccccc1` (stereo not drawn): the result with Mus musculus [6] and with Mus musculus [7] was Active.

As usually defined, the ED50 is the midpoint of the dose-response relation. In the case of `CC(=O)Oc1ccc2c(c1)C1(c3ccc(Cl)cc3)CCN(C)C(C2)C1` (racemic), the ED50 in the series with Mus musculus [8] is 20 mg/kg. The outcome with Mus musculus [5] was Active.

In the case of `CCN1CCC2(c3ccccc3)CC1Cc1ccc(O)cc12` (racemic), in the series with Mus musculus [8], the ED50 is greater than 30 mg/kg. Also, in the series on Mus musculus [9], the outcome was inactive. In the case of `CCCCC(=O)Oc1ccc2c(c1)C1(c3ccccc3)CCN(C)C(C2)C1C` (stereo not drawn), the result with Mus musculus [3] and with Mus musculus [10] was Active. On to `CC1C2Cc3ccc(OC(=O)c4cccc([N+](=O)[O-])c4)cc3C1(c1ccccc1)CCN2C` (stereo not drawn), for which the result in the series listed under Mus musculus [11] and in the series on Mus musculus [1] was Active. As for `CCN1CCC2(c3ccccc3)c3cc(O)ccc3CC1C2C` (stereo not drawn), in the series with Mus musculus [12], the result was Active. In the case of `CN1CC[C@]23c4c5ccc(O)c4O[C@H]2[C@@H](O)C=C[C@H]3[C@H]1C5` [MORPHINE], the result in the series with Mus musculus [13], in the series listed under Mus musculus [14] and with Mus musculus [16] was Active. The ED50 in the series with Mus musculus [15] came to 8.9 mg/kg. As to `O=C(Oc1ccc2c(c1)C1(c3ccccc3)CCN(C(=O)C3CC3)C(C2)C1)C1CC1` (racemic), the 50% effective dose (ED50) with Mus musculus [8] is greater than 100 mg/kg. For the same molecule, in the series on Mus musculus [17], the result was inactive. As for `CC(=O)Oc1ccc2c(c1)C1(c3ccccc3)CCN(C(C)=O)C(C2)C1` (racemic), the ED50 in the series with Mus musculus [8] was greater than 100 mg/kg. Besides, in the series with Mus musculus [18], the result was inactive. As to `CC(O)C(=O)O.CC1C2Cc3ccc(O)cc3C1(c1ccccc1)CCN2CCCCc1ccccc1` (stereo not drawn), the result in the series on Mus musculus [5] was inactive. In addition, the ED50 with Mus musculus [15] was greater than 100 mg/kg.

`CN1CCC2(c3ccccc3)CC1Cc1ccc(O)cc12` (stereo in doubt; 43): the outcome in the series with Mus musculus [19] was inactive. Regarding `CC1C2Cc3ccc(O)cc3C1(c1ccccc1)CCN2CCc1ccc(N)cc1` (stereo not drawn), the outcome with Mus musculus [3] and in the series on Mus musculus [1] was Active. With `CC(=O)Oc1ccc2c(c1)C1(c3ccc(Cl)cc3)CCN(C#N)C(C2)C1` (racemic), the ED50 in the series on Mus musculus [8] was greater than 100 mg/kg. The outcome in the series on Mus musculus [20] was inactive. In the case of `CC1C2Cc3ccc(OC(=O)c4ccco4)cc3C1(c1ccccc1)CCN2C(=O)c1ccco1` (stereo not drawn), in the series with Mus musculus [17], the result was inactive. `Oc1ccc2c(c1)C1(c3ccccc3)CCN(CC3CC3)C(C2)C1` (racemic): in the series on Rhesus monkey, the outcome was inactive. On to `CC1C2Cc3ccc(OC(=O)c4ccc(Cl)cc4)cc3C1(c1ccccc1)CCN2C` (stereo not drawn), for which, in the series on Mus musculus [1], the result was Active.

As to `CC1C2Cc3ccc(O)cc3C1(c1ccccc1)CCN2CCCC(=O)c1ccc(F)cc1.Cl.O` (stereo not drawn), in the series with Mus musculus [8], the ED50 was greater than 100 mg/kg. The outcome in the series listed under Mus musculus [14] and in the series with Mus musculus [21] was inactive.

With `CC1C2Cc3ccc(OC(=O)c4ccc(Br)cc4)cc3C1(c1ccccc1)CCN2C` (stereo not drawn), the outcome in the series with Mus musculus [22] and in the series on Mus musculus [23] was Active.

`Oc1ccc2c(c1)C1(c3ccccc3)CCN(CC3CCC3)C(C2)C1` (racemic): the result with Rhesus monkey was inactive. Take `CC(=O)Oc1ccc2c(c1)C1(c3ccccc3)CCN(C)C(C2)C1C` (stereo not drawn): the outcome with Mus musculus [3] and in the series with Mus musculus [16] was Active. Turning to `CN(C)C(=O)CCN1CCC2(c3ccccc3)CC1Cc1ccc(O)cc12` (racemic), the result in the series with Mus musculus [21] was inactive.

`CC1C2Cc3ccc(OC(=O)C4CCC4)cc3C1(c1ccccc1)CCN2C` (stereo not drawn): the outcome in the series on Mus musculus [24] and in the series with Mus musculus [4] was Active. Take `COc1ccc2c(c1)C1(c3ccccc3)CCN(C)C(C2)C1` (stereo not drawn): the result with Mus musculus [9] and in the series with Mus musculus [25] was inactive. As to `C[C@@H]1C2Cc3ccc(O)cc3C1(c1ccccc1)CCN2C` (stereo partly drawn), the outcome with Rhesus monkey and in the series on Mus musculus [26] was Active. On to `CC1C2Cc3ccc(O)cc3C1(c1ccc(Cl)cc1)CCN2C` (racemic), for which the outcome in the series with Mus musculus [24] and in the series on Mus musculus [7] was Active. Consider `CC(=O)N1CCC2(c3ccccc3)CC1Cc1ccc(O)cc12` (racemic), for which the ED50 with Mus musculus [8] was greater than 100 mg/kg. Besides, the result in the series on Mus musculus [20] was inactive.
